Measured values published in PubChem BioAssay AID2060502 (Molecular Pharmacology Branch, DTP, NCI, 2025).
Each block holds one compound with its values, some of them ahead of it.

Tested on: 885724-159-R-J1-PDC complex spheroid viability
Experiment: Anticancer human tumor 885724-159-R-J1-PDC patient-derived pancreatic adenocarcinoma cell line growth inhibition [GQUAD]
Conditions: for IC50: curve of first compound; for viability, T/C: stronger effect = lower value
Description: DNA G-quadruplex Stabilizer Agents in Combinations in Complex Spheroids
A high-throughput screen of multi-cell type tumor spheroids was designed to identify active combinations of DNA G-quadruplex stabilizer agents and targeted small molecules. Complex spheroids include a stromal component modeled by human endothelial cells (HUVEC) and fibroblasts modeled by human mesenchymal stem cells (MSCs). The concentration ranges selected for each drug and investigational agent were based upon clinically achievable concentrations if the clinical Cmax of the agent was known.
Compounds. The drugs and investigational agents: pidnarulex (CX-5461; NSC782164), APTO-253 (NSC789042), BRACO-19 (NSC847499), peposertib (NSC802822), ceralasertib (NSC780249), elimusertib (NSC800525), camonsertib (NSC841442), AZD-1390 (NSC803789), olaparib (NSC753686), talazoparib (NSC767125), ART-558 (NSC835418), sotorasib (NSC818433), MRTX-1133 (NSC836407), SN-38 (NSC673596), topotecan (NSC609699), etoposide (NSC141540), doxorubicin (NSC123127), gemcitabine (NSC613327), 5-fluorouracil (NSC19893), paclitaxel (NSC125973), vemurafenib (NSC761431), panobinostat (NSC761190), R-306465 (JNJ-16241199; NSC773264), adavosertib (NSC754352), TP-3654 (NSC805149), carboplatin (NSC241240), KSQ-4279 (NSC840948), and staurosporine (NSC755774) were obtained from the National Cancer Institute (NCI) Developmental Therapeutics Program Chemical Repository (34). The FDA-approved anticancer drug set is available from the NCI Developmental Therapeutics Program. […] The stock solutions were prepared in dimethyl sulfoxide (DMSO, Sigma-Aldrich, St. Louis, MO, cat. D2650) at 800-fold the tested concentration and stored at -70 degrees C prior to their use. All drugs and investigational agents were tested over a range starting from a high concentration at or near the clinical Cmax and decreasing in half-log increments. If the clinical Cmax for an agent had not been determined, the highest concentration tested was 10 microM.
2.3 Cell Culture. All cells were maintained in an incubator at 37 degrees C and 5% CO2 with 95% humidity. The PDC lines were cultured according to standard operating procedures established by the NCI PDMR. All PDCs were thawed and cultured in Matrigel-coated flasks prepared with a working solution of 1X Ham's F-12 nutrient mix, without supplementation (Invitrogen, cat. 11765054), 100 U/mL penicillin-streptomycin (Invitrogen, cat. 15140122), and 2.5% Matrigel (Corning Inc., cat. 354248) for the first three passages. The 857933-349-R-J2-PDC line was cultured in 6C/Colon 1B media, which includes advanced DMEM/F-12 (Thermo Fisher Scientific, cat. 12634028), 10 mM HEPES (Thermo Fisher Scientific, cat. 15630080), 1X GlutaMAX supplement (Thermo Fisher Scientific, cat. 35050061), 0.1 mg/mL primocin (InvivoGen, cat. ant-pm-2), 10% defined fetal bovine serum, heat inactivated (HyClone Laboratories Inc., cat. SH30070.03HI), 50% L-WRN conditioned media (ATCC, cat. CRL-3276), 1.25 mM N-Acetyl-L-cysteine (Sigma-Aldrich, cat. A9165), 10 mM nicotinamide (Sigma-Aldrich, cat. N0636), 1X B-27 supplement (Thermo Fisher Scientific, cat. 17504044), 1X N-2 supplement (Thermo Fisher Scientific, cat. 17502048), 10 microM Y-27632 dihydrochloride (Tocris Bioscience, cat. 1254), and 50 ng/mL human EGF recombinant protein (Thermo Fisher Scientific, cat. PHG0311). The 485176-168-R4-J1-PDC line was cultured in Panc media, which includes all 6C/Colon 1B media components plus 100 ng/mL human FGF-10 (Thermo Fisher Scientific, cat. 100-26), 500 nM SB-431542 (Selleckchem, cat. S1067), and gastrin (Tocris, cat. 3006).
[…]

[1] = second compound 0.0316 µM, first compound 0.0316 µM
[2] = second compound 0.0316 µM, first compound 0.316 µM
[3] = second compound 0.1 µM, first compound 0.0316 µM
[4] = second compound 0.1 µM, first compound 0.316 µM
[5] = second compound 0.316 µM, first compound 0.0316 µM
[6] = second compound 0.316 µM, first compound 0.316 µM
[7] = second compound 1 µM, first compound 0.0316 µM
[8] = second compound 1 µM, first compound 0.316 µM
[9] = second compound 3.16 µM, first compound 0.0316 µM
[10] = second compound 3.16 µM, first compound 0.316 µM
[11] = second compound 10 µM, first compound 0.0316 µM
[12] = second compound 10 µM, first compound 0.316 µM
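Also: spheroids exposed to agents for seven days before readout.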
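For viability, T/C in this document: percent of vehicle control viability where 100% = DMSO wells.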

Compound: Cn1ncnc1[C@H]1c2n[nH]c(=O)c3cc(F)cc(c23)N[C@@H]1c1ccc(F)cc1 + CN(C)c1ccc(Nc2c3ccc(NC(=O)CCN4CCCC4)cc3nc3cc(NC(=O)CCN4CCCC4)ccc23)cc1
- IC50 (second compound 0.0316 µM): > 0.316 µM
- IC50 (second compound 0.1 µM): > 0.316 µM
- IC50 (second compound 0.316 µM): > 0.316 µM
- IC50 (second compound 1 µM): > 0.316 µM
- IC50 (second compound 3.16 µM): > 0.316 µM
- IC50 (second compound 10 µM): > 0.316 µM
- viability, T/C (second compound 0.0316 µM, first compound 0.000999 µM): 99%
- viability, T/C (second compound 0.0316 µM, first compound 0.00316 µM): 96.7%
- viability, T/C (second compound 0.0316 µM, first compound 0.00999 µM): 98.9%
- viability, T/C [1]: 107%
- viability, T/C (second compound 0.0316 µM, first compound 0.0999 µM): 78.5%
- viability, T/C [2]: 84.9%
- viability, T/C (second compound 0.1 µM, first compound 0.000999 µM): 101%
- viability, T/C (second compound 0.1 µM, first compound 0.00316 µM): 112%
- viability, T/C (second compound 0.1 µM, first compound 0.00999 µM): 112%
- viability, T/C [3]: 93.1%
- viability, T/C (second compound 0.1 µM, first compound 0.0999 µM): 96%
- viability, T/C [4]: 88.3%
- viability, T/C (second compound 0.316 µM, first compound 0.000999 µM): 103%
- viability, T/C (second compound 0.316 µM, first compound 0.00316 µM): 96.2%
- viability, T/C (second compound 0.316 µM, first compound 0.00999 µM): 97.3%
- viability, T/C [5]: 86%
- viability, T/C (second compound 0.316 µM, first compound 0.0999 µM): 97.2%
- viability, T/C [6]: 82.1%
- viability, T/C (second compound 1 µM, first compound 0.000999 µM): 101%
- viability, T/C (second compound 1 µM, first compound 0.00316 µM): 75.7%
- viability, T/C (second compound 1 µM, first compound 0.00999 µM): 85.8%
- viability, T/C [7]: 73.4%
- viability, T/C (second compound 1 µM, first compound 0.0999 µM): 76.7%
- viability, T/C [8]: 76.2%
- viability, T/C (second compound 3.16 µM, first compound 0.000999 µM): 86.4%
- viability, T/C (second compound 3.16 µM, first compound 0.00316 µM): 79%
- viability, T/C (second compound 3.16 µM, first compound 0.00999 µM): 76%
- viability, T/C [9]: 76.5%
- viability, T/C (second compound 3.16 µM, first compound 0.0999 µM): 81.6%
- viability, T/C [10]: 75.6%
- viability, T/C (second compound 10 µM, first compound 0.000999 µM): 67.3%
- viability, T/C (second compound 10 µM, first compound 0.00316 µM): 85.9%
- viability, T/C (second compound 10 µM, first compound 0.00999 µM): 78%
- viability, T/C [11]: 74.2%
- viability, T/C (second compound 10 µM, first compound 0.0999 µM): 75.8%
- viability, T/C [12]: 77%

- IC50 (second compound 0.0316 µM): > 10 µM
- IC50 (second compound 0.1 µM): > 10 µM
- IC50 (second compound 0.316 µM): > 10 µM
- IC50 (second compound 1 µM): > 10 µM
- IC50 (second compound 3.16 µM): > 10 µM
- IC50 (second compound 10 µM): > 10 µM
Compound: CC(=O)O[C@H]1C(=O)[C@@]2(C)[C@H]([C@H](OC(=O)c3ccccc3)[C@]3(O)C[C@H](OC(=O)[C@H](O)[C@@H](NC(=O)c4ccccc4)c4ccccc4)C(C)=C1C3(C)C)[C@]1(OC(C)=O)CO[C@@H]1C[C@@H]2O + Cc1cnc(CNC(=O)c2c(=O)c3ccc(N4CCCN(C)CC4)nc3n3c2sc2ccccc23)cn1
- viability, T/C [1]: 103%
- viability, T/C (second compound 0.0316 µM, first compound 0.1 µM): 97.3%
- viability, T/C [2]: 96.9%
- viability, T/C (second compound 0.0316 µM, first compound 1 µM): 108%
- viability, T/C (second compound 0.0316 µM, first compound 3.16 µM): 104%
- viability, T/C (second compound 0.0316 µM, first compound 10 µM): 107%
- viability, T/C [3]: 111%
- viability, T/C (second compound 0.1 µM, first compound 0.1 µM): 105%
- viability, T/C [4]: 99.3%
- viability, T/C (second compound 0.1 µM, first compound 1 µM): 119%
- viability, T/C (second compound 0.1 µM, first compound 3.16 µM): 113%
- viability, T/C (second compound 0.1 µM, first compound 10 µM): 108%
- viability, T/C [5]: 110%
- viability, T/C (second compound 0.316 µM, first compound 0.1 µM): 114%
- viability, T/C [6]: 107%
- viability, T/C (second compound 0.316 µM, first compound 1 µM): 88.7%
- viability, T/C (second compound 0.316 µM, first compound 3.16 µM): 118%
- viability, T/C (second compound 0.316 µM, first compound 10 µM): 105%
- viability, T/C [7]: 95.9%
- viability, T/C (second compound 1 µM, first compound 0.1 µM): 93.3%
- viability, T/C [8]: 98.9%
- viability, T/C (second compound 1 µM, first compound 1 µM): 93.6%
- viability, T/C (second compound 1 µM, first compound 3.16 µM): 106%
- viability, T/C (second compound 1 µM, first compound 10 µM): 86%
- viability, T/C [9]: 77%
- viability, T/C (second compound 3.16 µM, first compound 0.1 µM): 78.6%
- viability, T/C [10]: 84.9%
- viability, T/C (second compound 3.16 µM, first compound 1 µM): 79.5%
- viability, T/C (second compound 3.16 µM, first compound 3.16 µM): 88.8%
- viability, T/C (second compound 3.16 µM, first compound 10 µM): 99.6%
- viability, T/C [11]: 66%
- viability, T/C (second compound 10 µM, first compound 0.1 µM): 68.7%
- viability, T/C [12]: 78.4%
- viability, T/C (second compound 10 µM, first compound 1 µM): 78.8%
- viability, T/C (second compound 10 µM, first compound 3.16 µM): 74.1%
- viability, T/C (second compound 10 µM, first compound 10 µM): 70.1%
